Values after ≈ are worked out from the molar mass of the structure shown.
Key:
[1] = Solubility of inotodiol in organic solvents (Example 1, HPLC-UV-VIS of supernatant); format: physicochemical; conditions: 30 °C
Method: To measure the […] solubility of inotodiol, the following was performed.
First, 50 mg of an inotodiol sample was mixed with 1 ml of an organic solvent. Subsequently, the mixture was vortexed and placed in a water bath sonicator for 15 minutes. […]

physchem [2] = conditions: distilled water, 30 °C, thermodynamic from solid
Method: (§1) To measure the solubility of inotodiol esters with respect to water, 5 mg of each sample was suspended in 1 mL of distilled water and treated in an ultrasonic bath for 30 minutes. The mixture was then treated in an ultrasonic bath (Power sonic 410) for 30 minutes. Then, the mixture was incubated at 30° C. for 3 hours. The supernatant obtained after centrifugation (20,000×g, 10 minutes) was filtered through a 0.45 μm membrane filter of [sequence]

physchem [3] = conditions: 30 °C, water, thermodynamic from solid
Method: as §1

CC(C)=CC[C@@H](O)[C@@H](C)[C@H]1CC[C@@]2(C)C3=C(CC[C@]12C)[C@@]1(C)CC[C@H](O)C(C)(C)[C@@H]1CC3 [Inotodiol, (3S,5R,10S,13R,14R,17R)-17-[(2S,3R)-3-hydroxy-6-methylhept-5-en-2-yl]-4,4,10,13,14-pentamethyl-2,3,5,6,7,11,12,15,16,17-decahydro-1H-cyclopenta[a]phenanthren-3-ol]
Inotodiol concentration ([1]; solvent acetonitrile): 0.976 mg/mL
Inotodiol concentration ([1]; solvent dichloromethane): 24.675 mg/mL
Inotodiol concentration ([1]; solvent ethanol): 25.152 mg/mL
Inotodiol concentration ([1]; solvent ethyl acetate): 8.685 mg/mL
Inotodiol concentration ([1]; solvent hexane): 0.094 mg/mL
Inotodiol concentration ([1]; solvent methanol): 7.964 mg/mL
Inotodiol concentration ([1]; solvent t-butanol): 26.493 mg/mL
solubility at 3 h (physchem [2]): 0.0005 ± 0.00018 mg/mL (≈ 0.00113 mM)
solubility at 3 h (physchem [3]): 31 ± 3.8 mg/mL (≈ 70 mM)

Source: patent US12454546B2, “Inotodiol ester derivative precursor drug” (CARBOEXPERT INC., priority 2020, dated 2025)
